# From ChEMBL document CHEMBL5046276 (J Med Chem, 2022)
# Calls of active or inactive are those of the source. No cut-off for these calls is given here.
# Legend:
# [1] = biological target: T1, NAD-dependent protein deacetylase sirtuin-2 (Homo sapiens, UniProt Q8IXJ6); assay: Inhibition of human C-terminal His-tagged SIRT2 (50 to 356 residues) expressed in Escherichia coli using Ac-peptide as substrate incubated for 4 hrs followed by trypsin addition and further incubated for 2 hrs
# T1 sequence (Q8IXJ6 whole entry): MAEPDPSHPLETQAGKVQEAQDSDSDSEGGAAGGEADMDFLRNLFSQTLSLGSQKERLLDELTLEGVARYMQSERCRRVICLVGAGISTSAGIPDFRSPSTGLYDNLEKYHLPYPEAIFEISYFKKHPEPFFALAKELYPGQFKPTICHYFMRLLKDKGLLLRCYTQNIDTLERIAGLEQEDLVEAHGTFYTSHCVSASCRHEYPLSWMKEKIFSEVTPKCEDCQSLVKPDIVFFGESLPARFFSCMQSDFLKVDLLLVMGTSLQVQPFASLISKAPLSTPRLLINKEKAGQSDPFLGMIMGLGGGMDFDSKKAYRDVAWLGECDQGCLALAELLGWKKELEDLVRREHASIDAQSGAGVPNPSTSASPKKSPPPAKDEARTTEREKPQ
# [2] = Cytotoxicity against HEK293T cells incubated for 72 hrs by CCK-8 assay; details: human
# Histone deacetylase 1 = Histone deacetylase 1 (Homo sapiens, UniProt Q13547); assay: Inhibition of recombinant human full length C-terminal His/FLAG tagged HDAC1 (1 to 482 residues) expressed in baculovirus-infected Sf9 cells using Ac-peptide as substrate incubated for 4 hrs
# [3] = biological target: T2, Protein deacetylase HDAC6 (Homo sapiens) (UniProt Q9UBN7); assay: Potency index, ratio of test compound IC50 to Quisinostat IC50 for inhibition of recombinant human full length N-terminal GST tagged HDAC6 (1 to 1215 residues) expressed in baculovirus-infected Sf9 cells using Ac-peptide as substrate incubated for 4 hrs
# T2 sequence (whole entry): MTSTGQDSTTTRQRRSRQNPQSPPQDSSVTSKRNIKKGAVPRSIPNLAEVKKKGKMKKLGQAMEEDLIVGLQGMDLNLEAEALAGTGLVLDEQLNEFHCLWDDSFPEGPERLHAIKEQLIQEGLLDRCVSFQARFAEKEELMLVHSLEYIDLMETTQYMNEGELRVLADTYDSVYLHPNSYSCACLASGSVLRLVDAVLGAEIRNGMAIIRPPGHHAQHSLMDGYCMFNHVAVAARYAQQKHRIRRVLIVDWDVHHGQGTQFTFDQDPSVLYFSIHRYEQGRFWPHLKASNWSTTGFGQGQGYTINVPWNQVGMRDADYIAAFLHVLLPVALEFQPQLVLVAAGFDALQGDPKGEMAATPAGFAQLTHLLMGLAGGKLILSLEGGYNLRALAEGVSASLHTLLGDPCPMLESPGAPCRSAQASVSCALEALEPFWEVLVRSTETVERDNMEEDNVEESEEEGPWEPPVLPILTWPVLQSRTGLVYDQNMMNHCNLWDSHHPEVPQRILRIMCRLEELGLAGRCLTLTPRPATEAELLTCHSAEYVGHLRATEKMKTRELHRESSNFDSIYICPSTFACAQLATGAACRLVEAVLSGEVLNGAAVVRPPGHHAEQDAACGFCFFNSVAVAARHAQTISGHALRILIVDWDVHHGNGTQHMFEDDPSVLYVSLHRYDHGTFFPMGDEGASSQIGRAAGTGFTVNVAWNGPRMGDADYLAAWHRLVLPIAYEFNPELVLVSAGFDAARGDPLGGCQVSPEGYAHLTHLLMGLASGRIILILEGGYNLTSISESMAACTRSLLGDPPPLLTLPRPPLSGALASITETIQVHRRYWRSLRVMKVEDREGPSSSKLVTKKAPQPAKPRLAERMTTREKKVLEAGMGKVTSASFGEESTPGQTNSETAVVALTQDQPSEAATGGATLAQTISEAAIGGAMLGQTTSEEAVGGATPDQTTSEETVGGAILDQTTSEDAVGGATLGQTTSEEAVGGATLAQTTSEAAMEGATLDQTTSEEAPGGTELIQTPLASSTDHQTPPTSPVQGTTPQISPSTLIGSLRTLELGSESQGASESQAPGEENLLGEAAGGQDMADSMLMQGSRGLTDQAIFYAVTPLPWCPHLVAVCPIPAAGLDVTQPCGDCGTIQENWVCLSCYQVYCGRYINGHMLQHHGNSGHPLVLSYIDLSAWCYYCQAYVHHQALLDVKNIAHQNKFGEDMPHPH
# Plasmodium yoelii = assay: Antimalarial activity against blood stage Plasmodium yoelii infected in BALB/c mouse assessed as parasite recrudescence by measuring parasitemia at 60 mg/kg, ip qd for 5 days and measured on 11 to 15 days; assay type: functional; details: time 11-15 day
# Plasmodium falciparum [4] = assay: Antimalarial activity against synchronized Plasmodium falcipuram 3D7 infected in human RBC assessed as irreversible inhibition of parasite growth at trophozoite stage at 40 nM treated at 17 to 29 hpi incubated for 12 hrs followed by compound washout and replacement with fresh medium without compounds and measured after 4 days by flow cytometry; assay type: functional, organism-based
# [5] = Toxicity in BALB/c mouse infected with blood stage Plasmodium yoelii assessed as body weight loss at 30 to 90 mg/kg, ip qd for 5 days and measured upto 60 days; assay type: organism-based; details: in vivo, dose 30-90 mg/kg, time <=60 day
# [6] = Toxicity in BALB/c mouse infected with blood stage Plasmodium yoelii assessed as animal death at 60 mg/kg, ip qd for 5 days measured from day 2 post compound treatment; assay type: organism-based; details: in vivo, 120 h, time 5 day
# Histone deacetylase 2 = Histone deacetylase 2 (Homo sapiens, UniProt Q92769); assay: biochemical; assay type: cell-based, Sf9
# Description: Inhibition of recombinant human full length C-terminal His tagged HDAC2 (1 to 488 residues) expressed in baculovirus-infected Sf9 insect cells using Ac-peptide as substrate incubated for 4 hrs
# [7] = Apparent elimination half life in BALB/c mouse at 5 mg/kg, ip measured after upto 24 hrs by LC-MS/MS analysis; assay type: ADME, organism-based; details: in vivo, read-out: betat1/2(app) (converted)
# Plasmodium falciparum [8] = assay: Antimalarial activity against ART-resistant Plasmodium falcipuram 6320 harbouring C580Y mutant infected in human RBC assessed as reduction in parasitemia in blood smear by measuring parasite survival ratio at ring stage at upto 700 nM incubated for 6 hrs followed by compound washout and replacement with fresh medium without compounds and measured after 66 hrs by ring stage survival assay; assay type: functional; details: dose nM <=700, time 6.0 hrs
# [9] = Selectivity index, ratio of IC50 for cytotoxicity against HEK293T cells to IC50 for antimalarial activity against asexual blood stage wild-type Plasmodium falciparum 3D7; assay type: toxicity, cell-based; details: human, read-out: Ratio IC50
# Plasmodium falciparum [10] = assay: Antimalarial activity against asexual blood stage sulfadoxine-pyrimethamine/mefloquine-resistant Plasmodium falcipuram CP286 assessed as parasite growth inhibition incubated for 72 hrs by SYBR Green I staining based fluorescence analysis; assay type: functional, organism-based; details: CP286, 72 h
# Chain of Histone deacetylase 1 (Q13547 whole entry, the tested form may be a part): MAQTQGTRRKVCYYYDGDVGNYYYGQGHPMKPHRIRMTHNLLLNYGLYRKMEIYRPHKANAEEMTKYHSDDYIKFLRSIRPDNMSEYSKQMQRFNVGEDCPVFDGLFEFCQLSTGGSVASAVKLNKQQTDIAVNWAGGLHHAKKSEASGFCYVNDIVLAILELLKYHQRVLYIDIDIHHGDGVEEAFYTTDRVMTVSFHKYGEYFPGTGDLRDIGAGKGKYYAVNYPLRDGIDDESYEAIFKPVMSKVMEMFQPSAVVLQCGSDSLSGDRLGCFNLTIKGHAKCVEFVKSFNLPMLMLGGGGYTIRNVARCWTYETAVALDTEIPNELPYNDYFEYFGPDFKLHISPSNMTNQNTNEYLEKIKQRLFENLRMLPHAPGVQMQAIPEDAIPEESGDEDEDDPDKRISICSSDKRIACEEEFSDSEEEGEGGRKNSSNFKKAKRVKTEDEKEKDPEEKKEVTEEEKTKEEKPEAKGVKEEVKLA
# Chain of Histone deacetylase 2 (Q92769 whole entry): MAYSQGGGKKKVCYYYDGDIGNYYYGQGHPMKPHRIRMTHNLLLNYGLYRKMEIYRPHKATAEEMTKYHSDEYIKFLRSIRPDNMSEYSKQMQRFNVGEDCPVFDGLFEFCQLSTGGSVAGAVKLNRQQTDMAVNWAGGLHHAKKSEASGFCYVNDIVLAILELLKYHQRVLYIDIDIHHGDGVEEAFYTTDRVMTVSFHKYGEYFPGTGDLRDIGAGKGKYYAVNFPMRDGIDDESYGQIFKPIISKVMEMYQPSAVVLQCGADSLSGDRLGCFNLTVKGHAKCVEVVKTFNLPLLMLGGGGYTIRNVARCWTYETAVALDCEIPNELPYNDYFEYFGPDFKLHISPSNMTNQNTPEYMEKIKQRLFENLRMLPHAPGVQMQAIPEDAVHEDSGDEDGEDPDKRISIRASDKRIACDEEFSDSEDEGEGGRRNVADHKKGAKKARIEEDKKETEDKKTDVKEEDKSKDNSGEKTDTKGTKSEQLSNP
compound,measurement,setting,value
Cl.Cn1cc(CN2CC3(CCN(c4ncc(C(=O)NO)cn4)C3)C2)c2ccc(C#N)cc21,IC50,[1],> 10000 nM
same,IC50 at 72 h,[2],1210 nM
same,IC50,Histone deacetylase 1,2.2 nM
same,Ratio IC50,[3],3
same,Activity,Plasmodium yoelii,0.01%
same,Activity,Plasmodium falciparum [4],Active
same,Activity,[5],Non-Toxic
same,Activity,[6],Non-Toxic
same,IC50,Histone deacetylase 2,5.1 nM
same,half-life,[7],54.6 min
same,Activity,Plasmodium falciparum [8],Active
same,selectivity ratio,[9],960
same,IC50,Plasmodium falciparum [10],5.85 nM
